Test results as given in patent US20090247559A1 (Exelixis, Inc., priority 2007, published 2009).
Read-outs that look alike come from different tables or passages of the source.

Key:
[1] = molecular target: PIM (PIM-1, PIM-2, and/or PIM-3); experiment: PIM-1, PIM-2 and PIM-3 inhibition, biochemical chemiluminescence assays (Kinase Glo, IC50 determination); conditions: Table 1 activity class; PIM refers to PIM-1, PIM-2, and/or PIM-3; read-out: PIM IC50 (Activity B)
CK2 = CK2 (Homo sapiens, UniProt P68400); experiment: CK2 inhibition, biochemical chemiluminescence holoenzyme assay (Kinase Glo, IC50 determination); conditions: Table 1 activity class; symbol given only if active; read-out: CK2 IC50 (Activity C)
Method in brief: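 Holoenzyme CK2 assay; compounds pre-incubated with substrate and enzyme, then reacted 150 min at 24-27° C. Remaining ATP measured as luminescence with Kinase Glo, and IC50 derived from the signal.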

CDC7 = CDC7 (Homo sapiens, UniProt O00311); experiment: CDC7 inhibition, biochemical chemiluminescence assay (Kinase Glo, IC50 determination)
Procedure: Characterization of CDC7 Inhibition in a Biochemical Chemiluminesence Assay (IC50 Determination):
The IC50 evaluation of compounds against the CDC7 enzyme was performed in a Chemiluminesence assay utilizing a Greiner 384-well white binding plate format. […] Upon addition of 10 μL of CDC-7 (GB) to the designated well plates and subsequent incubation for ten minutes at ambient temperature, 10 μL of ATP mix in Tris Base was added. Following an incubation period of 90 minutes at ambient temperature (24-27° C.), 20 μL of Kinase Glo (Promega) was added to measure kinase activity by quantitating the amount of ATP remaining in solution. The luminescence was measured following a Luciferase Protocol on either EnVision or Victor plate readers.

[2] = Table 1 activity class, symbol given only if active, read-out: CDC7 IC50 (Activity A)
[3] = compounds in Table 1, read-out: CDC7 IC50 value

Sequence of CDC7 (O00311 whole entry): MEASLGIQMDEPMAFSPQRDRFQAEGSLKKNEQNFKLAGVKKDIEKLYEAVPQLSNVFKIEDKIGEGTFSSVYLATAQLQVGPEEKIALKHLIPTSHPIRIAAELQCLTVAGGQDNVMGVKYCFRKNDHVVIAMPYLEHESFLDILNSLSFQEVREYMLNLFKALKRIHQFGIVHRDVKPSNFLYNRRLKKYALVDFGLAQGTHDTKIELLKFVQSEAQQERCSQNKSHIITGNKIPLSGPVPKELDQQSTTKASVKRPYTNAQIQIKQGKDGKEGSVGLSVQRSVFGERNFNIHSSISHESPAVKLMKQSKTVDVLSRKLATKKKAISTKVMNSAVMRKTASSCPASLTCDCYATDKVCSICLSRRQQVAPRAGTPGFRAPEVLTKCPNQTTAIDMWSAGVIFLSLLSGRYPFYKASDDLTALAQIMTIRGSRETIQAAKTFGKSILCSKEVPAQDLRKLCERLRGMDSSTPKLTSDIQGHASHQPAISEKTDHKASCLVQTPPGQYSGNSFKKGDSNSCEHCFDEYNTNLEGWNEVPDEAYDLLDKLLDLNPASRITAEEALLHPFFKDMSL
Sequence of CDC7 (Q9UBU7 whole entry partner): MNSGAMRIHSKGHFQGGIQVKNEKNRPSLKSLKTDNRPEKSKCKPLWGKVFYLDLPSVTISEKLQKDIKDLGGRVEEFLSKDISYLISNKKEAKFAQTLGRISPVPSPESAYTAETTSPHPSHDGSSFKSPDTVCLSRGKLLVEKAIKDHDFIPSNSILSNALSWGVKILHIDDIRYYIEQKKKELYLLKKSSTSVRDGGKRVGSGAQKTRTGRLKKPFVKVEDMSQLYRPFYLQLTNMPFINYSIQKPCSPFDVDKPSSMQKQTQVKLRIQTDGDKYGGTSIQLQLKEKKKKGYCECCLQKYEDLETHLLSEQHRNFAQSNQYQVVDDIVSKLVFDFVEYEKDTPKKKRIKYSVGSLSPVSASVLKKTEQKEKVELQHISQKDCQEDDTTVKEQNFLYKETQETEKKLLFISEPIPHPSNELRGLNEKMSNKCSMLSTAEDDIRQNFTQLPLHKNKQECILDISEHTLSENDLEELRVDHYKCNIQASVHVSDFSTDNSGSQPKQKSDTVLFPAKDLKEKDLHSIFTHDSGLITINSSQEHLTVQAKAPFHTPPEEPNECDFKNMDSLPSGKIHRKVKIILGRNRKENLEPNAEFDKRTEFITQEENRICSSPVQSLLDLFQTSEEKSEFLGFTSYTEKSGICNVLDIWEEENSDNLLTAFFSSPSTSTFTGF
Sequence of CK2 (P68400 whole entry): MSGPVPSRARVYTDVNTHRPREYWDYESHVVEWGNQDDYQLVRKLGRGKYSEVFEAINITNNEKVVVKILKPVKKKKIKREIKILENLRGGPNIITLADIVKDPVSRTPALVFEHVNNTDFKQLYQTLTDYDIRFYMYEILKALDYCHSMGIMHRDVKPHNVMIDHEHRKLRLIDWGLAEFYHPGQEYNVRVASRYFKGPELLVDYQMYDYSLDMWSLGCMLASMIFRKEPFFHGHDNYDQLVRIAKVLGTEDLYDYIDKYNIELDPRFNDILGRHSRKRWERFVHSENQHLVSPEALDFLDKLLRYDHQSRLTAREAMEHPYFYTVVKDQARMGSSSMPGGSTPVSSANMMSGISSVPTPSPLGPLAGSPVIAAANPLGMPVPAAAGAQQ
Sequence of CK2 (P67870 whole entry partner): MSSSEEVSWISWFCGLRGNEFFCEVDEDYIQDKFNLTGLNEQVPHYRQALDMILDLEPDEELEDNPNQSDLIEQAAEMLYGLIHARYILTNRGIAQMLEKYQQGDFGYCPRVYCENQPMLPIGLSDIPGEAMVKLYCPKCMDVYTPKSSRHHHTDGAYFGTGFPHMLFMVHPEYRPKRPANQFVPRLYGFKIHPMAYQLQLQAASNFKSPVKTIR

IC50 [1] [µM]	IC50 (CK2) [µM]	IC50 (CDC7; [2]) [µM]	IC50 (CDC7; [3]) [µM]	SMILES	IC50 (CDC7; CDC7 IC50 (Activity A), Table 1 activity class, symbol given only if active) [µM]	IC50 (CDC7; CDC7 IC50 value, compounds in Table 1) [µM]
< 10	< 10	< 10	–	Nc1n[nH]c2ccc(-c3nc4c(oc5ccc(Br)cc54)c(=O)[nH]3)cc12 [Compound 220, 2-(3-amino-1H-indazol-5-yl)-8-bromo[1]benzofuro[3,2-d]pyrimidin-4(3H)-one]	–	–
< 10	< 10	< 10	–	O=c1[nH]c([C@@H]2Cc3ccccc3N2)nc2c1oc1ccc(Br)cc12 [Compound 510, 8-bromo-2-[(2S)-2,3-dihydro-1H-indol-2-yl][1]benzofuro[3,2-d]pyrimidin-4(3H)-one]	–	–
–	< 10	< 10	< 0.1	O=c1[nH]c(C2CNCCO2)nc2c1oc1ccc(Br)cc12 (stereo not drawn) [Compound 298, 8-Bromo-2-morpholin-2-yl[1]benzofuro[3,2-d]pyrimidin-4(3H)-one]	–	–
–	< 10	< 10	–	O=C(NCc1ccccc1)C1CCN(Cc2nc3c(oc4ccc(Br)cc43)c(=O)[nH]2)C1 (stereo not drawn) [Compound 266, 1-[(8-bromo-4-oxo-3,4-dihydro[1]benzofuro[3,2-d]pyrimidin-2-yl)methyl]-N-(phenylmethyl)pyrrolidine-3-carboxamide]	–	–
< 10	–	< 10	–	COc1ccc(CC(N)c2nc3c(oc4ccc(Br)cc43)c(=O)[nH]2)cc1 (stereo not drawn) [Compound 539, 2-{1-amino-2-[4-(methyloxy)phenyl]ethyl}-8-bromo[1]benzofuro[3,2-d]pyrimidin-4(3H)-one]	–	–
< 10	–	< 10	< 0.1	NC(c1nc2c(oc3ccc(Br)cc32)c(=O)[nH]1)C1CCCCC1 (stereo not drawn) [Compound 541, 2-[amino(cyclohexyl)methyl]-8-bromo[1]benzofuro[3,2-d]pyrimidin-4(3H)-one]	–	–
–	–	< 10	–	O=c1[nH]c(-c2ccccc2Cl)nc2c1oc1ccc(Br)cc12 [Compound 30, 8-Bromo-2-(2-chlorophenyl)[1]benzofuro[3,2-d]pyrimidin-4(3H)-one]	–	–
< 10	–	< 10	< 0.1	COc1ccc2oc3c(=O)[nH]c([C@@H]4C[C@H](F)CN4)nc3c2c1 [Compound 530, 2-[(2S,4S)-4-fluoropyrrolidin-2-yl]-8-(methyloxy)[1]benzofuro[3,2-d]pyrimidin-4(3H)-one]	–	–
–	–	< 10	< 0.1	O=c1[nH]c(CN2CC(O)C2)nc2c1oc1ccc(Br)cc12 [Compound 183, 8-bromo-2-[(3-hydroxyazetidin-1-yl)methyl][1]benzofuro[3,2-d]pyrimidin-4(3H)-one]	–	–
–	–	< 10	–	O=c1[nH]c(-c2ccc(CNC3CCNCC3)cc2Cl)nc2c1oc1ccc(Br)cc12 [Compound 387, 8-bromo-2-{2-chloro-4-[(piperidin-4-ylamino)methyl]phenyl}[1]benzofuro[3,2-d]pyrimidin-4(3H)-one]	–	–
< 10	–	< 10	–	NC(Cc1ccccc1)c1nc2c(oc3ccc(Br)cc32)c(=O)[nH]1 (stereo not drawn) [Compound 535, 2-(1-amino-2-phenylethyl)-8-bromo[1]benzofuro[3,2-d]pyrimidin-4(3H)-one]	–	–
–	–	< 10	–	CN1C[C@@H]2CC[C@H]1CN2Cc1nc2c(oc3ccc(Br)cc32)c(=O)[nH]1 [Compound 330, 8-bromo-2-{[(1S,4S)-5-methyl-2,5-diazabicyclo[2.2.2]oct-2-yl]methyl}[1]benzofuro[3,2-d]pyrimidin-4(3H)-one]	–	–
< 10	–	< 10	–	O=c1[nH]c(CNCCN2CCCCC2)nc2c1oc1ccc(Br)cc12 [Compound 431, 8-bromo-2-{[(2-piperidin-1-ylethyl)amino]methyl}[1]benzofuro[3,2-d]pyrimidin-4(3H)-one]	–	–
< 10	–	< 10	–	NC(Cc1ccc(OCc2ccccc2)cc1)c1nc2c(oc3ccc(Br)cc32)c(=O)[nH]1 (stereo not drawn) [Compound 536, 2-(1-amino-2-{4-[(phenylmethyl)oxy]phenyl}ethyl)-8-bromo[1]benzofuro[3,2-d]pyrimidin-4(3H)-one]	–	–
< 10	< 10	–	–	CC(C)COc1ccc2oc3c(=O)[nH]c(CN4CC[C@H](O)C4)nc3c2c1 [Compound 477, 2-{[(3S)-3-hydroxypyrrolidin-1-yl]methyl}-8-[(2-methylpropyl)oxy][1]benzofuro[3,2-d]pyrimidin-4(3H)-one]	–	–
< 10	< 10	–	–	CN(C)C1CCN(Cc2nc3c(oc4ccc(Br)cc43)c(=O)[nH]2)C1 (stereo not drawn) [Compound 17, 8-bromo-2-{[3-(dimethylamino)pyrrolidin-1-yl]methyl}[1]benzofuro[3,2-d]pyrimidin-4(3H)-one]	–	–
< 10	< 10	–	–	COc1cc2oc3c(=O)[nH]c(CN4CC[C@H](O)C4)nc3c2cc1Br [Compound 436, 8-bromo-2-{[(3S)-3-hydroxypyrrolidin-1-yl]methyl}-7-(methyloxy)[1]benzofuro[3,2-d]pyrimidin-4(3H)-one]	–	–
–	–	< 10	–	COc1ccc2oc3c(=O)[nH]c(-c4ccccc4Cl)nc3c2c1 [Compound 32, 2-(2-Chlorophenyl)-8-(methyloxy)[1]benzofuro[3,2-d]pyrimidin-4(3H)-one]	–	–
< 10	< 10	–	–	COc1ccc2oc3c(=O)[nH]c(-c4ccncc4Cl)nc3c2c1 [Compound 152, 2-(3-chloropyridin-4-yl)-8-(methyloxy)[1]benzofuro[3,2-d]pyrimidin-4(3H)-one]	–	–

Continued, compound first:

SMILES	IC50 [1] [µM]	IC50 (CK2) [µM]	IC50 (CDC7; [2]) [µM]	IC50 (CDC7; [3]) [µM]	IC50 (CDC7; CDC7 IC50 (Activity A), Table 1 activity class, symbol given only if active) [µM]	IC50 (CDC7; CDC7 IC50 value, compounds in Table 1) [µM]
Cc1n[nH]c2ccc(-c3nc4c(oc5ccc(Br)cc54)c(=O)[nH]3)cc12 [Compound 123, 8-bromo-2-(3-methyl-1H-indazol-5-yl)[1]benzofuro[3,2-d]pyrimidin-4(3H)-one]	< 10	< 10	< 10	–	–	–
O=c1[nH]c(CN2CCNCC2)nc2c1oc1ccc(Br)cc12 [Compound 141, 8-bromo-2-(piperazin-1-ylmethyl)[1]benzofuro[3,2-d]pyrimidin-4(3H)-one]	< 10	< 10	< 10	–	–	–
CN(C)CCCN1CCN(Cc2nc3c(oc4ccc(Br)cc43)c(=O)[nH]2)CC1 [Compound 9, 8-bromo-2-({4-[3-(dimethylamino)propyl]piperazin-1-yl}methyl)[1]benzofuro[3,2-d]pyrimidin-4(3H)-one]	< 10	–	< 10	–	–	–
NC1(c2nc3c(oc4ccc(Br)cc43)c(=O)[nH]2)CCCCC1 [Compound 542, 2-(1-aminocyclohexyl)-8-bromo[1]benzofuro[3,2-d]pyrimidin-4(3H)-one]	–	< 10	–	–	< 10	< 0.1
O=c1[nH]c(Cc2ccccc2Br)nc2c1oc1ccc(Br)cc12 [Compound 421, 8-bromo-2-[(2-bromophenyl)methyl][1]benzofuro[3,2-d]pyrimidin-4(3H)one]	< 10	–	< 10	< 0.1	–	–
O=c1[nH]c(-c2ccc(NCC3CCCNC3)cc2Cl)nc2c1oc1ccc(Br)cc12 (stereo not drawn) [Cpd 159, 8-bromo-2-{2-chloro-4-[(piperidin-3-ylmethyl)amino]phenyl}[1]benzofuro[3,2-d]pyrimidin-4(3H)-one]	–	< 10	< 10	–	–	–
O=c1[nH]c([C@@H]2C[C@H](F)CN2)nc2c1oc1ccc(Cl)cc12 [Compound 525, 8-chloro-2-[(2S,4S)-4-fluoropyrrolidin-2-yl][1]benzofuro[3,2-d]pyrimidin-4(3H)-one]	< 10	–	< 10	< 0.1	–	–
O=C(NCCN1CCCCC1)c1ccc(-c2nc3c(oc4ccc(Br)cc43)c(=O)[nH]2)c(Cl)c1 [Compound 383, 4-(8-bromo-4-oxo-3,4-dihydro[1]benzofuro[3,2-d]pyrimidin-2-yl)-3-chloro-N-(2-piperidin-1-ylethyl)benzamide]	–	–	< 10	< 0.1	–	–
CN1C[C@@H]2C[C@H]1CN2Cc1nc2c(oc3ccc(Br)cc32)c(=O)[nH]1 [Compound 142, 8-bromo-2-{[(1S,4S)-5-methyl-2,5-diazabicyclo[2.2.1]hept-2-yl]methyl}[1]benzofuro[3,2-d]pyrimidin-4(3H)-one]	–	–	< 10	–	–	–
O=c1[nH]c([C@@H]2CC(F)(F)CN2)nc2c1oc1ccc(Cl)cc12 [Compound 524, 8-chloro-2-[(2S)-4,4-difluoropyrrolidin-2-yl][1]benzofuro[3,2-d]pyrimidin-4(3H)-one]	< 10	–	< 10	< 0.1	–	–
CN(Cc1nc2c(oc3ccc(Br)cc32)c(=O)[nH]1)c1ccccc1Cl [Compound 18, 8-bromo-2-{[(2-chlorophenyl)(methyl)amino]methyl}[1]benzofuro[3,2-d]pyrimidin-4(3H)-one]	< 10	< 10	–	–	–	–
O=c1[nH]c(-c2ccccc2Cl)nc2c1oc1ccc3ccccc3c12 [Compound 96, 10-(2-Chlorophenyl)naphtho[1′,2′:4,5]furo[3,2-d]pyrimidin-8(9H)-one]	< 10	< 10	–	–	–	–
O=c1[nH]c(CCN2CCCC2)nc2c1oc1ccc(Br)cc12 [Compound 105]	< 10	< 10	–	–	–	–
O=c1[nH]c(-c2ccccc2Br)nc2c1oc1ccc(Br)cc12 [Compound 38, 8-Bromo-2-(2-bromophenyl)[1]benzofuro[3,2-d]pyrimidin-4(3H)-one]	< 10	< 10	–	–	–	–
